Marks after values point to notes of the source that are not given here.
Experiment: Plasma pharmacokinetics, Arm II (oral BID), phase 1 trial
Type: in vivo, human
Experimental: Pharmacokinetics of ilorasertib were evaluated in the dose-escalation cohort on blood samples that were collected on cycle 1 days 1 and 15. Parameters determined: Cmax, time to Cmax (Tmax), terminal phase elimination half-life (t1/2), clearance, apparent oral clearance (CL/F), and area under the plasma concentration-time curve from time 0 to time of last measurable concentration (AUCt) and from time 0 to infinity (AUC∞). For Arm I, blood samples were collected prior to dosing and at 0.5, 1, 2, 3, 4, 6, 8, 10 or 12, and 24 h after dosing on cycle 1 days 1 and 15; of note, for institutions not able to collect the 10- or 12-h post-dose sample, the 24-h sample was replaced with 22-h and 28-h post-dose samples. In Arm II, for the first dose, blood samples were collected pre-dose and at 1, 2, 3, and 4 h post-dose on cycle 1 days 1 and 15; for the second dose, samples were collected pre-dose and at 1, 2, 3, 4, 18, and 24 h after second dose on cycle 1 days 1 and 15. In Arm III, blood samples were collected prior to infusion, at 1 h 55 min (just before end of infusion), and at 0.5, 1, 2, 4, 6, 8, 10, and 24 h after end of infusion on cycle 1 days 1 and 15; here also, for institutions not able to collect the 8-h or 10-h after-end-of-infusion samples, the 24-h sample was replaced with 22-h and 28-h post-dose samples. The liquid chromatography (LC)-mass spectrometry (MS)/MS method was developed and validated in the Bioanalysis Department of AbbVie. Fifty microliter of human plasma (K2EDTA as anticoagulant) was fortified with 300 μL of deuterium-stable labelled internal standard and mixed well. A HybridSPE precipitation plate (50 mg/96 wells, Supelco Analytical, Munich, Germany) was used to directly load and elute (under slight vacuum) the fortified samples into a clean collection plate. Samples were dried before reconstitution with 100 μL of 20/80 (v/v) acetonitrile/water, and injected for LC-MS/MS analysis. A Halo C8 (Wilmington, DE, USA; 2.7 μm, 2.1 × 30 mm) was used on an Agilent 1290 Infinity UPLC pump (Agilent Technologies, Santa Clara, CA) to carry out the separation. An isocratic condition with 25/75/0.1 (v/v/v) acetonitrile/water/98% formic acid was used as the mobile phase. The flow rate was set to be 0.6 mL/min. An MPS 3 C ([…] Ruhr, Germany) autosampler was used to introduce samples onto the UPLC system. An API 4000 mass spectrometer (Applied Biosystems, Foster City, CA) was used in the multiple reactions monitoring mode for the detection and quantitation of analyte. Descriptive statistics were used for demographic variables. The numbers and percentages of patients with treatment-emergent AEs (TEAEs) were tabulated using the Medical Dictionary for Regulatory Activities version 16.0 system organ class and preferred term, and further classified according to CTCAE version 4.0 criteria. The safety data set included all patients who received one or more doses of ilorasertib. The pharmacokinetic data set included all patients who received one or more doses of ilorasertib and had one or more pharmacokinetic samples. Values for pharmacokinetic parameters were determined using non-compartmental methods, with data analysed separately for each arm. A repeated measures analysis was performed for Tmax and dose-normalised Cmax, AUCt, and AUC∞. The model included random effects for patient and fixed effects for dose level, day, and the interaction of dose level and day. To assess effects of exposure on pharmacodynamic biomarkers, Cmax was employed as the directly measured marker of exposure for the rapid changes in DBP and PlGF pre-steady-state, while AUC∞ reflected exposure variability at the time of post-multiple-dose skin biopsy. Descriptive statistics were used to summarise ECOG performance status. The efficacy data set included all patients who received one or more doses of ilorasertib.

[1] = Arm II PO BID 40 mg, day 1, N=2, mean (individual)
[2] = Arm II PO BID 40 mg, day 15, N=3
[3] = Arm II PO BID 60 mg, day 1, N=3
[4] = Arm II PO BID 60 mg, day 15, N=1
[5] = Arm II PO BID 60 mg, day 15, N=3
[6] = Arm II PO BID 90 mg, day 1, N=2, mean (individual)
[7] = Arm II PO BID 90 mg, day 1, N=3
[8] = Arm II PO BID 90 mg, day 15, N=2, mean (individual)
[9] = Arm II PO BID 90 mg, day 15, N=3
[10] = Arm II PO BID 130 mg, day 1, N=3
[11] = Arm II PO BID 130 mg, day 1, N=4
[12] = Arm II PO BID 130 mg, day 15, N=1
[13] = Arm II PO BID 130 mg, day 15, N=3
[14] = Arm II PO BID 190 mg, day 1, N=4
[15] = Arm II PO BID 190 mg, day 1, N=7
[16] = Arm II PO BID 190 mg, day 15, N=2, mean (individual)
[17] = Arm II PO BID 190 mg, day 15, N=5
[18] = Arm II PO BID 230 mg, day 1, N=2, mean (individual)
[19] = Arm II PO BID 230 mg, day 1, N=3
[20] = Arm II PO BID 230 mg, day 15, N=1
[21] = Arm II PO BID 230 mg, day 15, N=4
[22] = Arm II PO BID 340 mg, day 1, N=1
[23] = Arm II PO BID 340 mg, day 1, N=3
[24] = Arm II PO BID 340 mg, day 15, N=1
[25] = Arm II PO BID all doses, day 1, N=14
[26] = Arm II PO BID all doses, day 1, N=26
[27] = Arm II PO BID all doses, day 15, N=7
[28] = Arm II PO BID all doses, day 15, N=22

Nc1ncc(-c2cnn(CCO)c2)c2scc(-c3ccc(NC(=O)Nc4cccc(F)c4)cc3)c12 [ilorasertib, Ilorasertib]
AUC∞/dose [1]: 49.9 (35.6, 64.1)^b ng•h/mL/mg
CL/F [1]: 21.8 (28.1, 15.6)^b L/h
AUCt/dose (Arm II PO BID 40 mg, day 1, N=3): 46.5 ± 20.5 ng·h/mL/mg
AUCt/dose [2]: 46.9 ± 25.6 ng·h/mL/mg
Cmax/dose [2]: 2.4 ± 1.3 ng/mL/mg
AUCt/dose [3]: 45.4 ± 12.2 ng·h/mL/mg
Cmax/dose [3]: 3.2 ± 1.2 ng/mL/mg
AUC∞/dose [4]: 45.3^b ng•h/mL/mg
CL/F [4]: 22.1^b L/h
AUCt/dose [5]: 24.3 ± 5.9 ng·h/mL/mg
Cmax/dose [5]: 1.9 ± 0.47 ng/mL/mg
AUC∞/dose [6]: 22.4 (14.1, 30.6)^b ng•h/mL/mg
CL/F [6]: 51.7 (70.7, 32.6)^b L/h
AUCt/dose [7]: 21.8 ± 8.5 ng·h/mL/mg
Cmax [7]: 300 ± 100 ng/mL
Cmax/dose [7]: 1.7 ± 0.6 ng/mL/mg
AUC∞/dose [8]: 29.6 (41.1, 18.1)^c ng•h/mL/mg
CL/F [8]: 39.8 (24.3, 55.2)^c L/h
t1/2 (harmonic mean) [8]: 16.2 (23.4, 12.4)^c h
AUCt/dose [9]: 22.5 ± 8.4 ng·h/mL/mg
Cmax/dose [9]: 1.8 ± 0.54 ng/mL/mg
AUC∞/dose [10]: 25.1 ± 17.2^c ng•h/mL/mg
CL/F [10]: 51.5 ± 25.9^c L/h
AUCt/dose [11]: 19.5 ± 12.2 ng·h/mL/mg
Cmax/dose [11]: 2.3 ± 1.5 ng/mL/mg
AUC∞/dose [12]: 15.2^b ng•h/mL/mg
CL/F [12]: 65.7^b L/h
AUCt/dose [13]: 9.2 ± 5.0 ng·h/mL/mg
Cmax/dose [13]: 1.0 ± 1.1 ng/mL/mg
AUC∞/dose [14]: 46.8 ± 29.7^d ng•h/mL/mg
CL/F [14]: 29.6 ± 17.9^d L/h
t1/2 (harmonic mean) [14]: 13.7 ± 9.0^d h
AUCt [15]: 8100 ± 4440 ng·h/mL
AUCt/dose [15]: 21.3 ± 11.7 ng·h/mL/mg
Cmax/dose [15]: 1.4 ± 0.8 ng/mL/mg
AUC∞/dose [16]: 28.0 (20.9, 35.2)^c ng•h/mL/mg
CL/F [16]: 38.1 (47.8, 28.4)^c L/h
AUCt/dose [17]: 17.6 ± 13.7 ng·h/mL/mg
Cmax/dose [17]: 1.7 ± 1.0 ng/mL/mg
AUC∞/dose [18]: 19.9 (18.1, 21.7)^b ng•h/mL/mg
CL/F [18]: 50.8 (55.4, 46.1)^b L/h
AUCt/dose [19]: 21.9 ± 7.9 ng·h/mL/mg
Cmax/dose [19]: 1.5 ± 0.5 ng/mL/mg
AUC∞/dose [20]: 28.2^b ng•h/mL/mg
CL/F [20]: 35.5^b L/h
AUCt/dose [21]: 24.4 ± 9.4 ng·h/mL/mg
Cmax/dose [21]: 1.7 ± 1.0 ng/mL/mg
AUC∞/dose [22]: 145^e ng•h/mL/mg
CL/F [22]: 6.9^e L/h
AUCt/dose [23]: 57.8 ± 21.8 ng·h/mL/mg
Cmax/dose [23]: 3.0 ± 1.3 ng/mL/mg
AUCt/dose [24]: 23.0 ng·h/mL/mg
Cmax/dose [24]: 1.1 ng/mL/mg
AUC∞/dose [25]: 42.3 ± 36.5^f ng•h/mL/mg
CL/F [25]: 37.7 ± 21.8^f L/h
t1/2 (harmonic mean) [25]: 13.0 ± 6.2^f h
AUCt/dose [26]: 31.1 ± 18.8 ng·h/mL/mg
Cmax/dose [26]: 2.2 ± 1.2 ng/mL/mg
AUC∞/dose [27]: 29.1 ± 11.7^d ng•h/mL/mg
CL/F [27]: 39.9 ± 16.7^d L/h
t1/2 (harmonic mean) [27]: 9.9 ± 3.7^d h
AUCt/dose [28]: 23.5 ± 15.5 ng·h/mL/mg
Cmax/dose [28]: 1.7 ± 0.9 ng/mL/mg
